Experimental data as given in ChEMBL document CHEMBL1150977, “A quantitative analysis of kinase inhibitor selectivity” (Nat Biotechnol, 2008).

Experiments:
[1] = biological target: Receptor-type tyrosine-protein kinase FLT3 (Homo sapiens, UniProt P36888, D835H)
[2] = biological target: Epidermal growth factor receptor (Homo sapiens, UniProt P00533, G719S)
[3] = biological target: Epidermal growth factor receptor (Homo sapiens, UniProt P00533, L861Q)
[4] = biological target: Epidermal growth factor receptor (Homo sapiens, UniProt P00533, A750P/L747-E749DEL)
[5] = biological target: Epidermal growth factor receptor (Homo sapiens, UniProt P00533, S752-I759DEL)
[6] = biological target: Cyclin-dependent kinase 9 (Homo sapiens, UniProt P50750)

Measured: Kd

COCC(=O)NC/C=C/c1ccc2ncnc(Nc3ccc(Oc4ccc(C)nc4)c(C)c3)c2c1 [CP-724714]
> 10 µM: [1]

Nc1nc(Nc2ccc(S(N)(=O)=O)cc2)nn1C(=O)c1c(F)cccc1F [JNJ-7706621]
> 10 µM: [2] | [3] | [4] | [5]

Oc1ccc(-c2nc(-c3ccncc3)c(-c3ccc(F)cc3)[nH]2)cc1 [SB-202190]
> 10 µM: [6] | [1]

NC(=O)c1ccc(-c2nc(-c3ccc4c(c3)OCO4)c(-c3ccccn3)[nH]2)cc1 [SB-431542]
not listed: [1]
> 10 µM: all other assays above
